Measurements published in patent publication US20240393319A1, “FLUORESCENT SENSORS AND METHODS OF MAKING AND USING” (Howard Hughes Medical Institute, priority 2023, published 2024).
Where two headings read alike, the source gives them in different places.

Experiments:
Rho° (ρ^0) cells = test: Green:red ratio imaging in Rho° fibroblasts; format: cell-based, mouse; settings: 10 mM 2dOG
Procedure: (§1) Rho° and the parental LMTK-cells were maintained in T-75 flasks with DMEM+10% FBS+1 mM pyruvate+5 μM uridine. Two days prior to transfection, they were split into a 24-well plate (half Rho°, half LMTK) at 0.6 and 0.1 million cells per well, respectively. Cells were transfected with iATPSnFR2.HaloTag variants by lipofectamine (0.5 μg DNA+2 μL lipofectamine 2000 per well) for 4-6 hours in DMEM lacking FBS or antibiotics. Transfection media was replaced with fresh DMEM+10% FBS+penicillin/streptomycin overnight. Cells were labeled with JFX650 HaloTag ligand by adding the fluorophore to 100 nM for an hour. Cells were washed with Mammalian Cell Imaging Buffer and imaged in a Cytation 5 imaging reader (BioTek) over the course of about 2 hours. After about 20 minutes of imaging to establish a baseline fluorescence, the culture plate was removed from the instrument and buffer was replaced with the query buffer. The equilibration buffer contained 10 mM glucose, and the query buffers contained 10 mM 2dOG.
(§2) Images were background subtracted and aligned for movement artefacts with the Gen5 software package that controls the Cytation 5 instrument. Images were assembled as TIF stacks and imported into ImageJ. […] Those ROIs were used to determine the ratio of green to red fluorescence for each well. […]

LMTK- cells = test: Green:red ratio imaging in parental LMTK- fibroblasts; format: cell-based, mouse
Procedure: as §1, §2

[1] = target: T1, iATPSnFR2.A95A.A119L.HaloTag-JFX650 (L1-VLVG, L2-ICV); cpSFGFP inserted in epsilon subunit of Bacillus subtilis PS3 F0-F1 ATPase; mutations A95A, A119L; SEQ ID N (Bacillus sp. PS3, UniProt P07678); test: ATP/nucleotide titration, binding curve fits; settings: for Kd: A95A.A119L; for fluorescence change in response to nucleoside triphosphate: GTP, CTP, TTP
T1 construct: E. coli, Ni-NTA purified
T1 sequence (P07678 whole entry, stated change not applied): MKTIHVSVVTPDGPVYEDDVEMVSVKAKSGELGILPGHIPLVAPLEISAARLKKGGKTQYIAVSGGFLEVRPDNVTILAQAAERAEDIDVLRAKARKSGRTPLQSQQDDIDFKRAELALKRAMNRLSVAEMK
From the text: (1A) Artistic rendering of iATPSnFR2.HaloTag made with PyMol. The N-terminal fragment (residues 1-109) of the epsilon subunit of ATPase (orange, based on 2E5Y.PDB) is fused to cpSFGFP (green). The C-terminus of cpSFGFP is fused to the residual ATP-binding helix (residues 110-129) of the epsilon subunit (pink), which itself is fused to HaloTag (cyan). “Linkers” are shown as sticks in yellow. […] HaloTag fluorophore is shown as sticks in red. […] (1C-1E) Ratio of green (iATPSnFR2) to red (HaloTag-JFX650) fluorescence in fibroblasts transfected with three affinity variants of iATPSnFR2-HaloTag. […] Cells were incubated for 21 minutes in buffer containing 10 mM glucose, and then switched to buffer containing 10 mM 2-deoxyglucose. (1C) Rho° cells. (1D) Parental LMTK cell line. (1E) Parental cell line treated with both 2-deoxyglucose and oligomycin.
ATP (black), CTP (cyan), GTP (grey), TTP (purple).
(§3) Purified protein was mixed with 1.1 molar equivalents of JFX650 HaloTag Ligand and incubated at room temperature for 1 hour and then at 4° C. overnight. Excess HaloTag Ligand was removed by gel filtration on a PD-10 column (GE Life Sciences) and re-concentrated by ultrafiltration.
The iATPSnFR2.HaloTag-JFX650 was the primary protein used for in vitro characterization.

MaLion = settings: cited from earlier work
ChemoG-ATPSiR = settings: cited from earlier work
[2] = test system: axonal mitochondria of primary neurons; test: Axonal mitochondrial ATP (mito-iATPSnFR2) after removal of glucose; format: cell-based
Procedure: Similar results were obtained in neurons where LDs were induced by blocking DDHD2 activity with KLH45 for 24 hours.

[3] = test system: axonal mitochondria of primary hippocampal neurons; test: Mitochondrial matrix ATP without glucose (mito-iATPSnFR2); format: cell-based, Sprague-Dawley rats
Procedure: Data is represented as mean±SE for N=4 (each condition). […] Data from N=4 for each condition is represented as mean±SE, p-value (**≤0.001 for PA and PA+Etox) was determined using unpaired samples t-test. ns signifies non-significant change in mean values.
(§4) Primary neuronal cultures were prepared as previously described. Hippocampal CA1 to CA3 regions were dissected, dissociated, and plated onto poly-L-ornithine-coated coverslips. Plating media consisted of the minimal essential medium, 0.5% glucose, insulin (0.024 g/l), transferrin ([…]), GlutaMAX 1%, N-21 (2%), and fetal bovine serum (10%). After 1-3 days in vitro (DIV), cells were fed and maintained in media with the following modifications: cytosine β-D-arabinofuranoside (4 μM) and FBS 5%. Cultures were incubated at 37° C. in a 95% air/5% CO2 incubator. […]
(§5) Coverslips were loaded onto a custom chamber, mounted on a Zeiss inverted microscope and perfused at ˜100 μl min^−1 with Tyrode's solution containing: 119 mM NaCl, 2.5 mM KCl, 30 mM glucose, 25 mM HEPES, 2 mM CaCl2), 2 mM MgCl2, 50 μM DL-2-amino-5-phosphonovaleric acid (APV, AP5), 10 μM 6-cyano-7-nitroquinoxaline-2,3-dione (CNQX), adjusted to pH 7.4. […] Fluorescence was stimulated with OBIS 488 nm LX or OBIS 637 nm LS lasers (Coherent) passing through a laser speckle reducer (LSR 3005 at 12° diffusion angle, Optotune). […]

[4] = test system: axonal mitochondria of primary hippocampal neurons; test: mito-iATPSnFR2.HaloTag imaging of mitochondrial ATP in neurons; format: cell-based, rat; settings: 1.25 mM lactate + 1.25 mM pyruvate + 10 μM oligomycin
Procedure: All experiments involving animals were performed in accordance with protocols approved by the Weill Cornell Medicine Institutional Animal Care and Use Committee. Neurons were derived from Sprague-Dawley rats (Charles River Laboratories strain code: 001, RRID: RGD_734476) of either sex on postnatal days 0-2).
as §4, §5

[5] = TTP titration of purified iATPSnFR2 sensor; format: binding
Procedure: iATPSnFR2 variants were transformed into E. coli BL21 (DE3) pLysS cells. Protein expression was induced by growth in 300 mL autoinduction media supplemented with 100 μg/mL ampicillin at 30° C. […] Fractions that were fluorescent were pooled and concentrated by ultrafiltration (Amicon) and then dialyzed by Slide-A-Lyzer cassette (30 kDa cutoff) in Mammalian Cell Imaging Buffer. Protein concentration was quantified by alkali denaturation and measurement of the GFP chromophore, with an extinction coefficient of […] at 447 nm.
as §3

[6] = ATP titration with added inorganic phosphate; format: binding; settings: 20 mM PO4, pH 7
[7] = test system: synaptic boutons of hippocampal neurons; test: Syn-iATPSnFR2.HaloTag imaging of ATP depletion in boutons; format: cell-based, rat; settings: 5 mM glucose + 10 μM KA + 0.3 μM TTX
[8] = Stopped-flow fluorescence kinetics of ATP binding
Procedure: Final concentration of protein was thus 0.1 μM.

[9] = test system: nerve terminals of dissociated hippocampal neurons; test: Cytosolic ATP in nerve terminals during action potential firing; format: cell-based, rat; settings: 6 sec at 50 Hz, 5 mM glucose + 10 μM KA
[10] = pH dependence of fluorescence; format: physicochemical; settings: ligand-free sensor

O=CC[C@@H](O)[C@H](O)[C@H](O)CO [2dOG, 2-deoxyglucose]
green fluorescence after glucose replaced with 2dOG (Rho° (ρ^0) cells): rapidly dropped
fluorescence after 2dOG treatment (LMTK- cells; 10 mM 2dOG, parental LMTK- cells): decreased fluorescence only in the parental LMTK-cells expressing the weakest affinity variant

Nc1ncnc2c1ncn2[C@@H]1O[C@H](COP(=O)(O)OP(=O)(O)O)[C@@H](O)[C@H]1O [ADP]
ΔF/F for ADP [1]: ~6
Kd ([1]; read-out: affinity for ADP (binding curve fit), head-to-head with ATP): 5.3 mM
Kd ([1]; read-out: affinity for ADP, FIG. 1B, 5D): 5.3 mM

Nc1ncnc2c1ncn2[C@@H]1O[C@H](COP(=O)(O)O)[C@@H](O)[C@H]1O [AMP]
affinity for AMP [1]: minimal, if any, affinity

Nc1ccn([C@@H]2O[C@H](COP(=O)(O)OP(=O)(O)OP(=O)(O)O)[C@@H](O)[C@H]2O)c(=O)n1 [CTP]
fluorescence change in response to nucleoside triphosphate ([1]; FIG. 5E): changes fluorescence
Kd ([1]; read-out: affinity for CTP (binding curve fit), FIG. 5E): ~10 mM

Nc1nc2c(ncn2[C@@H]2O[C@H](COP(=O)(O)OP(=O)(O)OP(=O)(O)O)[C@@H](O)[C@H]2O)c(=O)[nH]1 [GTP]
fluorescence change in response to nucleoside triphosphate ([1]; FIG. 5E): changes fluorescence
Kd ([1]; read-out: affinity for GTP (binding curve fit), FIG. 5E): ~10 mM
change in fluorescence with GTP (MaLion): no change in fluorescence
change in fluorescence with GTP (ChemoG-ATPSiR): no change in fluorescence

O=C(N(CCc1ccccc1)C1CCCCC1)n1ncc(-c2ccc(OC(F)(F)F)cc2)n1 [KLH45]
mitochondrial ATP levels after removal of glucose ([2]; DDHD2 blocked for 24 hours, then glucose and KLH45 removed): sustained
mitochondrial ATP levels in absence of glucose ([3]; KLH45 for 24 hours, then removed): ATP levels are sustained

Cc1cn([C@H]2C[C@H](O)[C@@H](COP(=O)(O)OP(=O)(O)OP(=O)(O)O)O2)c(=O)[nH]c1=O [TTP]
fluorescence change in response to nucleoside triphosphate ([1]; FIG. 5E): not

CCOC(=O)[C@@]1(CCCCCCOc2ccc(Cl)cc2)CO1 [etomoxir]
mitochondrial ATP levels after removal of glucose ([2]; after KLH45 24 hours, etomoxir included): ATP decline over a 10-minute period
decline in mitochondrial ATP level ([2]; palmitic acid pre-fed neurons, applied when removing glucose): identical to the control neurons without any fuel supplement

CC[C@H]1/C=C/C=C/C[C@@H](C)[C@H](O)[C@@](C)(O)C(=O)[C@@H](C)[C@H](O)[C@@H](C)C(=O)[C@@H](C)[C@H](O)[C@@H](C)/C=C/C(=O)O[C@@H]2[C@H](C)[C@H](CC1)O[C@]1(CC[C@H](C)[C@H](C[C@@H](C)O)O1)[C@H]2C [oligomycin]
fluorescence after 2dOG and oligomycin (LMTK- cells; parental cells, both 2dOG and oligomycin): dropped in a manner similar to the ρ^0 cells
mitochondrial ATP signal [4]: further collapse of the ATP signal

CCCCCCCCCCCCCCCC(=O)O [palmitic acid]
mitochondrial ATP levels in absence of glucose ([2]; pre-fed for 4 hours, 10 minutes): sustained
mitochondrial ATP levels in absence of glucose ([3]; palmitic acid pre-fed for 4 hours, 10 minutes): mitochondrial ATP levels were sustained

A95A.A119L: low affinity iATPSnFR2 variant, characterised as HaloTag-JFX650 fusion
fluorescence response to TTP [5]: but not TTP
effect of inorganic phosphate on the sensor [6]: negligibly affected
green fluorescence after glucose replaced with 2dOG (Rho° (ρ^0) cells): nearly non-fluorescent within minutes of treatment
average green to red fluorescence ratio in boutons [7]: greater drop than the medium affinity A95K variant

A95K: medium affinity iATPSnFR2 variant, characterised as HaloTag-JFX650 fusion
rate of ATP binding / fluorescence change, comparison [8]: faster than A95A.A119L
fluorescence change on action potential firing [9]: much smaller amplitude

S29W.A95K: high affinity iATPSnFR2 variant, characterised as HaloTag-JFX650 fusion
rate of ATP binding / fluorescence change, comparison [8]: faster than A95A.A119L

iATPSnFR2: improved ATP sensor: cpSFGFP inserted in epsilon subunit of ATPase, L1-VLVG, L2-ICV, A95A, A119L
effect of inorganic phosphate on the sensor [6]: not affected
pKa [10]: about 6.0
